In assay [1] the test system is platelet aggregation induced by U-46619 in human platelet-rich plasma (PRP). In words: Platelet aggregation inhibitory action (U-46619-induced, human platelet-rich plasma). Format: cell-based. Particulars: compounds added 1 minute before U-46619, turbidity. As to the method: Human whole blood drawn from the median cubital vein was centrifuged for 10 minutes at 800 rpm, and the upper portion was collected as platelet-rich plasma (PRP). […] The size of the aggregates were measured with a platelet aggregate measuring instrument (Hematracer 1, Nikko Bioscience) as the change in turbidity. The compounds were added 1 minute before addition of U-46619, and the concentration which inhibits aggregation by 50% was calculated as the IC50 value.

The target of assay [2] is T1, Thromboxane A2 Receptor (Oryctolagus cuniculus, UniProt Q6WQI8).
T1 sequence (Q6WQI8 1-233): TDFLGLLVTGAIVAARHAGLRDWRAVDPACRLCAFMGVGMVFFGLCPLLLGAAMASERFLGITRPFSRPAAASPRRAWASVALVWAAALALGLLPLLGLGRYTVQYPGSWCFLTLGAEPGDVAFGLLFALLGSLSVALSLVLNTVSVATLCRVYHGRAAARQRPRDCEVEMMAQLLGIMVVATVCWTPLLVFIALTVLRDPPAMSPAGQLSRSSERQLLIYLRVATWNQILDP
In words: Receptor binding experiment: Thromboxane A2 Receptor Binding Test ([3H]SQ29548, washed platelets). The note with it: rabbit washed platelets; [3H]SQ29548 3 nM; 60 minutes at 25° C.; read-out: Binding Inhibitory Action IC50 (converted). Further details: species or system New Zealand White rabbits. As to the method:
Whole blood from New Zealand White rabbits was collected into a container containing ACD solution (1.175 g of sodium citrate, 0.685 g of citric acid, and 1 g of dextrose dissolved in 50 ml of distilled water) followed by centrifuging at room temperature for 10 minutes at 180 ×g to obtain platelet-rich plasma. Moreover, this platelet-rich plasma was further centrifuged at room temperature and 2800 ×g to result in sedimentation of the platelets. The platelets were resuspended in 50 mM Tris hydrochloric acid buffer solution (pH 7.2, containing […]) and again centrifuged at 4° C. for 15 minutes at 2800 ×g. This procedure was repeated twice to prepare the washed platelets, and adjusted to a final concentration of 10 mg/ml (wet weight). Tritium-labelled SQ29548 ([3H]SQ29548) was used for the TXA2 ligand. In an antagonism experiment, 20 μl of [3H]SQ29548 at a final concentration of 3 nM were added to 500 μl of a 10 mg/ml platelet suspension, together with adding 2.6 μl of the test drug dissolved in a suitable buffer. After incubating for 60 minutes at 25° C., the mixture was filtered over a glass filter using the Celherbster method, the filter was washed with 50 mM Tris hydrochloric acid buffer solution (3 ×4 ml), and radioactivity was measured with a scintillation counter to determine the amount of [3H]SQ29548 bound to the platelets. In addition, in a saturation test, 20 μl of [3H]SQ29548 were added to a final concentration of 0.1-50 nM followed by the addition of 2.6 μl of BM13505 at a final concentration of 1 μM in order to examine non-specific binding and carry out a binding experiment. The concentration of the test drug which inhibited binding of [3H]SQ29548 by 50% was determined as the IC50 value.

The subject of assay [3] is vasoconstriction of rat thoracic aorta induced by U-46619. In words: Vasoconstriction inhibitory action (U-46619-induced constriction of thoracic aorta spiral specimens). Details: species or system long Evans rats. Particulars: 10 min, pH 7.4, minimum concentration at which inhibition rate was 50% or more, 10 ng/ml U-46619, drug applied 10 minutes, 37° C., read-out: Vasoconstriction Inhibitory Action MIC. The procedure: Male and female long Evans rats having body weights of 150-200 g were used in this example. After sacrificing the animals by decapitation, the thoracic aorta was removed, and the outer membrane was peeled off to obtain I2 spiral specimens roughly 2 cm in length. Blood vessel specimens were warmed to 37° C. and preserved in a Magnus tube containing 10 ml of a nutrient solution aerated with 95% oxygen+5% carbon dioxide gas. The nutrient solution contained 118.3 mmol of NaCl, 4.7 mmol of KCl, […] of CaCl, 1.2 mmol of MgSO4, 1.2 mmol of KH2 PO4, 25 mmol of NaCHO3, 11.1 mmol of D-glucose, 0.03 mmol of EDTA along with 1 μg/ml each of atropin, phentolamine, mepiramine, cyproheptadine, propranolol and indometacin, and was adjusted to a pH of 7.4. Vasoconstriction was measured using an isometric transducer (Harward UF-1 Transducer and Sekonic SS-250F Graph recorder). An equilibration time of 3 hours was provided after the blood vessels were installed on the Magnus device, and fresh nutrient solution was replaced every 30 minutes during that time. […] of U-46619, having TXA2 action (to reach roughly 75% of maximum constriction), was applied for 30 minutes to constrict the vessels. The maximum stable constriction during this time was taken to be the control constriction (C1). Next, the blood vessels were washed several times with nutrient solution to remove the drug. After allowing a recovery period of 30 minutes, the test drugs were applied at various concentrations for 10 minutes followed by again constricting the vessels by applying 10 ng/ml of U-46619 for 30 minutes. The maximum stable constriction during this time was taken to be the constriction of the test drugs (C2). The inhibition rates of vasoconstriction induced by the drugs and U-46619 were determined according to the following formula, and the minimum concentration at which the inhibition rate was 50% or more was determined as the minimum inhibitory concentration (MIC).
((C1-C2)/C1)×100=Inhibition rate (%)

The source of these data is patent US5496849A, “Sulfonic acid derivative and its pharmaceutical application” (Toray Industries, Inc., priority 1992, dated 1996).

The IC50 is the concentration at which inhibition is half-maximal. With `COc1ccc(S(=O)(=O)N[C@@H]2[C@H]3c4cccc(OCC(=O)O)c4O[C@H]3C[C@H]2O)cc1` (racemic) [(51), (1RS, 2RS, 3aSR, 8bRS)-1-(p-methoxybenzenesulfonamido)-2-hydroxy-2,3,3a,8b-tetrahydro-1H-cyclopenta[b]benzofuran-5-yloxyacetic acid], the results for the IC50 in assay [1] and in assay [2] were 68 nM and 27.6 nM, respectively. In addition, in assay [3], the minimal effective concentration is 0.1 µg/mL.

For the molecule `O=C(O)COc1cccc2c1O[C@H]1C[C@@H](O)[C@H](NS(=O)(=O)c3ccc(F)cc3)[C@@H]21` (racemic) [(53), (1RS, 2RS, 3aSR, 8bRS)-1-(p-fluorobenzenesulfonamido)-2-hydroxy-2,3,3a,8b-tetrahydro-1H-cyclopenta[b]benzofuran-5-yloxyacetic acid], the IC50 in assay [1] is 33 nM; in assay [2] it was 21 nM. The minimal effective concentration in assay [3] was determined as 0.05 µg/mL.

In the case of `O=C(O)COc1cccc2c1O[C@H]1C[C@@H](O)[C@H](NS(=O)(=O)c3ccc(Cl)cc3)[C@@H]21` (racemic) [(55), (1RS, 2RS, 3aSR, 8bRS)-1-(p-chlorobenzenesulfonamido)-2-hydroxy-2,3,3a,8b-tetrahydro-1H-cyclopenta[b]benzofuran-5-yloxy acetic acid], the IC50 in assay [1] was 17 nM; in assay [2], 3.18 nM. In assay [3], the minimal effective concentration was determined as 0.1 µg/mL.

Consider `O=C(O)COc1cccc2c1O[C@H]1C[C@@H](O)[C@H](NS(=O)(=O)c3cccc(Cl)c3)[C@@H]21` (racemic) [(57), (1RS, 2RS, 3aSR, 8bRS)-1-(m-chlorobenzenesulfonamido)-2-hydroxy-2,3,3a,8b-tetrahydro-1H-cyclopenta[b]benzofuran-5-yloxyacetic acid], for which the figures for the IC50 in assay [1] and in assay [2] were 41 nM and 22.7 nM, respectively. The minimal effective concentration in assay [3] was 0.01 µg/mL.

As to `O=C(O)COc1cccc2c1O[C@H]1C[C@@H](O)[C@H](NS(=O)(=O)c3ccc(Br)cc3)[C@@H]21` (racemic) [(61), (1RS, 2RS, 3aSR, 8bRS)-1-(p-bromobenzenesulfonamido)-2-hydroxy-2,3,3a,8b-tetrahydro-1H-cyclopenta[b]benzofuran-5-yloxyacetic acid], the IC50 was 44 nM in assay [1] and 2.06 nM in assay [2]. Further, the minimal effective concentration in assay [3] was 0.03 µg/mL.

Turning to `O=C(O)COc1cccc2c1O[C@H]1C[C@@H](O)[C@H](NS(=O)(=O)c3ccc(I)cc3)[C@@H]21` (racemic) [(63), (1RS, 2RS, 3aSR, 8bRS)-1-(p-iodobenzenesulfonamido)-2-hydroxy-2,3,3a,8b-tetrahydro-1H-cyclopenta[b]benzofuran-5-yloxyacetic acid], the IC50 in assay [1] is 58 nM; in assay [2], 22.6 nM. Further, the minimal effective concentration in assay [3] came to 0.01 µg/mL.

Turning to `O=C(O)COc1cccc2c1O[C@H]1C[C@@H](O)[C@H](NS(=O)(=O)c3ccc([N+](=O)[O-])cc3)[C@@H]21` (racemic) [(68), (1RS, 2RS, 3aSR, 8bRS)-1-(p-nitrobenzenesulfonamido)-2-hydroxy-2,3,3a,8b-tetrahydro-1H-cyclopenta[b]benzofuran-5-yloxyacetic acid], the 50% inhibitory concentration (IC50) in assay [1] is 140 nM; in assay [2], 910 nM. In assay [3], the minimal effective concentration was 0.1 µg/mL.

Consider `O=C(O)COc1cccc2c1O[C@H]1C[C@@H](O)[C@H](NS(=O)(=O)c3ccc(F)cc3F)[C@@H]21` (racemic) [(70), (1RS, 2RS, 3aSR, 8bRS)-1-(2,4-difluorobenzenesulfonamido)-2-hydroxy-2,3,3a,8b-tetrahydro-1H-cyclopenta[b]benzofuran-5-yloxyacetic acid], for which the figures for the IC50 in assay [1] and in assay [2] were 29 nM and 49.8 nM, respectively. The minimal effective concentration in assay [3] was found to be 0.03 µg/mL.

For the molecule `O=C(O)COc1cccc2c1O[C@H]1C[C@@H](O)[C@H](NS(=O)(=O)c3ccc(Cl)c(Cl)c3)[C@@H]21` (racemic) [(72), (1RS, 2RS, 3aSR, 8bRS)-1-(3,4-dichlorobenzenesulfonamido)-2-hydroxy-2,3,3a,8b-tetrahydro-1H-cyclopenta[b]benzofuran-5-yloxyacetic acid], the values for the concentration for half-maximal inhibition (IC50) in assay [1] and in assay [2] were 120 nM and 25.3 nM, respectively. For the same molecule, the minimal effective concentration in assay [3] was found to be 0.03 µg/mL.

In the case of `O=C(O)COc1cccc2c1O[C@H]1CC[C@H](NS(=O)(=O)c3ccccc3)[C@@H]21` (racemic) [(90), (1SR, 3aSR, 8bRS)-1-benzenesulfonamido-2,3,3a,8b-tetrahydro-1H-cyclopenta[b]benzofuran-5-yloxyacetic acid], the IC50 in assay [1] was 99 nM; in assay [2], 8.47 nM. Further, in assay [3], the minimal effective concentration is 0.003 µg/mL.

As to `CO[C@@H]1C[C@@H]2Oc3c(OCC(=O)O)cccc3[C@@H]2[C@H]1NS(=O)(=O)c1ccccc1` (racemic) [(92), (1RS, 2RS, 3aSR, 8bRS)-1-benzenesulfonamido-2-methoxy-2,3,3a,8b-tetrahydro-1H-cyclopenta[b]benzofuran-5-yloxyacetic acid], the IC50 was 100 nM in assay [1] and 57.2 nM in assay [2]. Moreover, the minimal effective concentration in assay [3] came out at 0.1 µg/mL.

As for `O=C(O)COc1cccc2c1O[C@H]1CC[C@@H](NS(=O)(=O)c3ccccc3)[C@@H]21` (racemic) [(94), (1RS, 3aSR, 8bRS)-1-benzenesulfonamido-2,3,3a,8b-tetrahydro-1H-cyclopenta[b]benzofuran-5-yloxyacetic acid], the figures for the IC50 in assay [1] and in assay [2] were 68 nM and 16.7 nM, respectively. The minimal effective concentration in assay [3] was determined as 0.1 µg/mL.

As to `CCOC(=O)COc1cccc2c1O[C@H]1C[C@@H](O)[C@H](NS(=O)(=O)c3ccccc3)[C@@H]21` (racemic) [(102), (1RS, 2RS, 3aSR, 8bRS)-1-benzenesulfonamido-2-hydroxy2,3,3a,8b-tetrahydro-1H-cyclopenta[b]benzofuran-5-yloxyacetic acid ethyl ester], the IC50 is 220 nM in assay [1] and 415 nM in assay [2]. In assay [3], the minimal effective concentration is 0.03 µg/mL.

`O=C(O)COc1cccc2c1O[C@H]1CC[C@H](OS(=O)(=O)c3ccccc3)[C@@H]21` (racemic) [(121), (1SR, 3aSR, 8bSR)-1-(phenylsulfonyloxy)-2,3,3a,8b-tetrahydro-1H-cyclopenta[b]benzofuran-5-yloxyacetic acid]: the IC50 in assay [1] was 130 nM; in assay [2], 1.28 nM. Also, in assay [3], the minimal effective concentration worked out at 0.003 µg/mL.

As for `Cc1ccc(S(=O)(=O)N[C@@H]2[C@H]3c4cccc(OCC(=O)O)c4O[C@H]3C[C@H]2O)cc1` (relative stereo) [(49), (1RS, 2RS, 3aSR, 8bRS)-1-(p-toluenesulfonamido)-2-hydroxy-2,3,3a,8b-tetrahydro-1H-cyclopenta[b]benzofuran-5-yloxyacetatic acid], the results for the IC50 in assay [1] and in assay [2] were 22 nM and 8.82 nM, respectively. Further, in assay [3], the minimal effective concentration came to 0.01 µg/mL.
